Entries after “also recorded” stand apart in the source; their conditions may differ. Non-standard residues stand in square brackets, D forms with d. Residues, ends and D or L forms follow the SMILES beside them. No end group written: not given here.
Experiments:
[1] = system: P815S (HBsAg transfectant) target cells; assay: HBsAg-specific CTL response of immunized mice, 51Cr-release cytotoxicity assay; type: in vivo, BALB/c mice; conditions: for Ag-specific CTL response (in words): two or three s.c. injections at 21 day intervals, no added adjuvant; for % Specific Lysis: s.c. in PBS
Procedure: Groups of six to eight BALB/c mice were given bilateral s.c. injections in the inguinal area with (100 al each side) of a PBS solution containing 50-100 μg of the peptides. Booster injections were given s.c. in the inguinal region at 21-day intervals. Sera for Ab analysis were obtained by retro-orbital bleeds of mice under CO2 narcosis.
Three weeks after secondary) (2° immunization and two weeks after tertiary)(3° immunization, two to three mice from each experimental group were sacrificed by cervical dislocation and their spleens removed aseptically. Pooled splenic single-cell suspensions were prepared in RPMI-1640 medium (Sigma, St. Louis, Mo.) containing 10% FBS (Hyclone, Salt Lake City, Utah) and the following supplements: 10 mM HEPES buffer, 50 μM 2-ME, 2 mM L-glutamine, 50 μg/ml gentamicin sulfate, 100 Um′ penicillin, and 50 μg/ml streptomycin (all supplements from Sigma). This supplemented complete medium is designated RP10-SC. For culture, 75×10^6 pooled spleen cells in 5 ml of RP10-SC were pipetted into a 25 cm^2 T-flask (Corning). Next, 5 ml of RP 10-SC containing 150 nM of synthetic, L^d MHC class I-restricted peptide, […] (SEQ ID NO:12) were added to the flask. The flasks were incubated undisturbed in an upright position at 37° C. in 5% CO2. After 4 days of incubation, the cells were recovered from the T-flasks, washed once by centrifugation in fresh RP10-SC, resuspended in 5 ml RP10-SC, counted, and adjusted to 5×10^6 viable cells/ml.
The specific cell target used for measuring CTL activity was P815S, a transfectant cell line of P815 (H-2^d) expressing the HBsAg (14). P815S was grown in RP10-SC medium containing 400 μg/ml geneticin disulfate (G418, Sigma). The parental H-2^d mastocytoma cell line, P815 (ATTC #TIB64) grown in RP10-SC medium, was used as a non-specific target for CTL assays to measure % non-specific lysis.
The target cells, either P815S or P815, were washed 2 times in RP10-SC. For labeling, 5×10^6 target cells were mixed with 250 μCi ^51Cr-sodium chromate[400-1200 Ci (14.8-44.4 TBq)]/[…]; NEN Dupont, Boston, Mass.) in a 1.0 ml volume in a 50 ml conical tube and incubated in a 37° C. water bath for 90 mins. After incubation, the labeled cells were washed 3 times by centrifugation using 15 ml volumes of fresh RP10-SC and allowed to stand at room temperature for 30 mins. The pelleted cells were resuspended in RP10-SC at 1×10^6 cells/ml.
The recovered splenic effector cells at 5×10^6 cells/ml were serially diluted in triplicate in wells of round-bottom 96 well plates (Corning, 25850) in a total volume of 100 al/well and using RP10-SC as the diluent. Next, 100 μl volumes of ^51Cr-labeled targets, P815S or P815, at 1×10^6 cells/ml were added to the wells. Maximum release (MR) wells contained 100 al of target cells and 100 al of 2% (v/v) Tween 20 while spontaneous release (SR) wells contained labeled cells in medium alone. Effector-to-target ratios of 50:1, 25:1, 12.5:1, and 6.25:1 were routinely employed. The plates were centrifuged at 400×g and incubated at 37° C. in 5% CO2 for 4 hrs. After incubation, the supernatant fractions in the wells were collected using a Skatron Supernatant Collection System (Skatron Instruments, Sterlin, Va.). The amount of ^51Cr radioactivity in the supernatant fractions was measured using a Wallac 1470 Wizard gamma counter (Turku, Finland).

human umbilical artery = assay: Smooth muscle contraction of human umbilical artery; type: cell-based; conditions: for EC50: concentration resulting in 50% maximum contraction; for agonist behaviour relative to natural C5a (in words): umbilical artery contraction and MPO release assays; for pD2 ± SE: −log EC50 (M), mean ± SE, n=3
Procedure: (§1) Statistical analysis of the values obtained from pharmacologic assays was performed using one-way analysis of variance (ANOVA).

human PMNs = assay: MPO release from human PMNs; type: cell-based; conditions: for EC50: 50% maximum release of myeloperoxidase; for pD2 ± SE: −log EC50 (M), mean ± SE, n=3
Procedure: as §1

MUC1 epitope peptide = assay: Serum antibody response to MUC1 epitope peptide in immunized mice (RIA); type: in vivo, C57B16 and Balb/c mice; conditions: 100 μg i.p. with RIBI adjuvant, three immunizations, sera at 6 weeks
Excerpt: The strains of mice used for this example were inbred females 6 to 12 week old C57B16(H-2^b) and Balb/c (H-2^d), which were obtained from Jackson labs (Bar Harbor, Me.). […] The MUC1 peptide selected for these studies contained a motif that may bind to the H-2K^b molecule of the C57B16 mice; therefore, a strain of mouse that lacked this class I molecule binding motif (Balb/c) was also studied to determine the relative contribution of the class I binding motif to the antigen presentation properties of these peptides.
(§2) Preimmune sera were obtained from mice, which were subsequently immunized intraperitoneally with 100 μg of the indicated peptide with RIBI adjuvant (MPL+TDM+CWS) (Sigma Immunochemicals). Animals were boosted twice at two week intervals using the same injection procedure. Sera were obtained following three immunizations (at 6 weeks).
For radioimmunoassay (RIA), anti-peptide antibodies were determined, before and at different time points after immunization, in 96-well microtiter plates (Dynatech Laboratories, Inc.). Plates were coated with 50 μl of a 100 μg/ml appropriate peptide in phosphate-buffered saline (PBS) pH 7.4 solution overnight at 4° C. The wells were blocked by incubation with 5% dry milk in PBS pH 7.4 for at least two hours. Anti-peptide antibody titers were determined using serial dilutions of sera. The sera were diluted with PBS containing 0.05% Tween-20, pH 7.4 (washing buffer) and 50 μl of each dilution was incubated at 37° C. for 1 hour. The wells were then drained, washed 4 times with PBS-Tween and 50 μl of ^125I-goat anti-mouse Ab (1-2×10^4 cpm/well) was added and incubated for 1 hr at 25° C. After washing, specific radioactivity was recorded in a gamma counter (1272 CliniGamma, LKB).
Experimental groups were as follows: • Group A. mice immunized with peptide (1) • Group B. mice immunized with peptide (2) • Group C. mice immunized with peptide (1) plus peptide (2) • Group D. mice immunized with peptide (3) • Group E. mice immunized with peptide (4).

MUC1 peptide = assay: MUC1 specific antibody isotype titers in immunized mice (ELISA); type: in vivo, C57BL6 mice; conditions: for Ab titer IgA / Ab titer IgG1 / Ab titer IgG2a / Ab titer IgG2b / Ab titer IgG3 / Ab titer IgM: mean titer of responders, sera screened against MUC1 peptide, five mice
Procedure: as §2
Anti-peptide antibody isotype titers were determined by enzyme-linked immunosorbent assay (ELISA) carried out in 96-well microtiter plates. The plates were coated with 100 μg/ml of appropriate peptide in PBS, pH 7.4, and incubated overnight. The wells were blocked with 5% dry milk in PBS pH 7.4 for at least two hours. Anti-peptide titers were determined using serial dilutions of sera as described above. After the plates were washed 4 times, 50 μl of a 1:100 dilution of rabbit anti-mouse IgA, IgG1, IgG2a, IgG2b, IgG3 and IgM (Zymed) was added to each well and incubated at 25° C. for 1 hour. The plates were washed 4 times with washing buffer and 50 μl of 1:500 goat anti-rabbit conjugated to […] (Zymed) was incubated at 37° C. for 1 hour. Again, the plates were washed 4 times with washing buffer and bound enzyme was detected by the addition of 50 μl 1 mg/ml p-nitrophenyl phosphate (Sigma) in 10% diethanolamine (Sigma) pH 9.4. The reaction was stopped by the addition of 50 μl of 0.5 M sodium hydroxide and absorbance values (A405) were determined on Titertek Multiskan (Flow Laboratories, Irvine, Scotland).
The following experiment was performed in order to compare the potency of the molecular adjuvant of the present invention with a widely used method for enhancing the immune response to peptide epitopes. The objective was a direct comparison of the response to a construct of MUC1 epitope-C5a agonist and the same epitope conjugated to keyhole limpet hemocyanine (KLH) in mice.

[2] = Effector:Target 6.25:1, boost day 21, spleen cells day 42
[3] = Effector:Target 12.5:1, boost day 21, spleen cells day 42
[4] = Effector:Target 25:1, boost day 21, spleen cells day 42
[5] = Effector:Target 50:1, boost day 21, spleen cells day 42, restimulated 4 days with S28-39

CC[C@H](C)[C@H](N)C(=O)N1CCC[C@H]1C(=O)N[C@@H](CCC(N)=O)C(=O)N[C@@H](CO)C(=O)N[C@@H](CC(C)C)C(=O)N[C@@H](CC(=O)O)C(=O)N[C@@H](CO)C(=O)N[C@@H](Cc1c[nH]c2ccccc12)C(=O)N[C@@H](Cc1c[nH]c2ccccc12)C(=O)N[C@H](C(=O)N[C@@H](CO)C(=O)N[C@@H](CC(C)C)C(=O)N[C@@H](CCCNC(=N)N)C(=O)N[C@H](C(=O)N[C@@H](CCCNC(=N)N)C(=O)N[C@@H](CCCNC(=N)N)C(=O)N[C@@H](Cc1ccc(O)cc1)C(=O)N[C@@H](CO)C(=O)N[C@@H](Cc1ccccc1)C(=O)N[C@@H](CCCCN)C(=O)N1CCC[C@H]1C(=O)N[C@@H](CCSC)C(=O)N1CCC[C@H]1C(=O)N[C@@H](CC(C)C)C(=O)N[C@H](C)C(=O)N[C@@H](CCCNC(=N)N)C(=O)O)C(C)C)[C@@H](C)O (H-IPQSLDSWWTSLRVRRYSFKPMPL[dA]R-OH)
Ag-specific CTL response (in words) [1]: specific CTL response that was significantly above background levels; also recorded: robust CTL activity
EC50 (human umbilical artery): 180 nM
agonist behaviour relative to natural C5a (in words) (human umbilical artery): full agonists
pD2 ± SE (human umbilical artery): 6.67 ± 0.22
EC50 (human PMNs): 2150 nM
pD2 ± SE (human PMNs): 5.61 ± 0.19

CC[C@H](C)[C@H](N)C(=O)N1CCC[C@H]1C(=O)N[C@@H](CCC(N)=O)C(=O)N[C@@H](CO)C(=O)N[C@@H](CC(C)C)C(=O)N[C@@H](CC(=O)O)C(=O)N[C@@H](CO)C(=O)N[C@@H](Cc1c[nH]c2ccccc12)C(=O)N[C@@H](Cc1c[nH]c2ccccc12)C(=O)N[C@H](C(=O)N[C@@H](CO)C(=O)N[C@@H](CC(C)C)C(=O)N[C@@H](Cc1ccc(O)cc1)C(=O)N[C@@H](CO)C(=O)N[C@@H](Cc1ccccc1)C(=O)N[C@@H](CCCCN)C(=O)N1CCC[C@H]1C(=O)N[C@@H](CCSC)C(=O)N1CCC[C@H]1C(=O)N[C@@H](CC(C)C)C(=O)N[C@H](C)C(=O)N[C@@H](CCCNC(=N)N)C(=O)O)[C@@H](C)O (H-IPQSLDSWWTSLYSFKPMPL[dA]R-OH)
% Specific Lysis [1, 2]: 1%
% Specific Lysis [1, 3]: 2%
% Specific Lysis [1, 4]: 4%
% Specific Lysis [1, 5]: 6%
Ag-specific CTL response (in words) [1]: lack of a CTL response
EC50 (human umbilical artery): 210 nM
agonist behaviour relative to natural C5a (in words) (human umbilical artery): full agonists
pD2 ± SE (human umbilical artery): 6.68 ± 0.17
EC50 (human PMNs): 1580 nM
pD2 ± SE (human PMNs): 5.80 ± 0.04

IPQSLDSWWTSL [HBsAg L^d MHC class I-restricted peptide S28-39, reference compound]
% Specific Lysis [1, 2]: 3%
% Specific Lysis [1, 3]: 3%
% Specific Lysis [1, 4]: 5%
% Specific Lysis [1, 5]: 7%

IPQSLDSWWTSLRR [reference compound]
% Specific Lysis [1, 2]: 0%
% Specific Lysis [1, 3]: 1%
% Specific Lysis [1, 4]: 2%
% Specific Lysis [1, 5]: 2%

YKQGGFLGL [reference compound]
antibody response (in words) (MUC1 epitope peptide): no appreciable increase in antibody response

YKQGGFLGL-KLH (YKQGGFLGL-{KLH}; also: conjugated to KLH) [reference compound]
Ab titer IgA (MUC1 peptide): 0
Ab titer IgG1 (MUC1 peptide): 100
Ab titer IgG2a (MUC1 peptide): 0
Ab titer IgG2b (MUC1 peptide): 0
Ab titer IgG3 (MUC1 peptide): 0
Ab titer IgM (MUC1 peptide): 5010
number of responders IgG1 (MUC1 peptide; responders / mice immunized): (2/5)
number of responders IgM (MUC1 peptide; responders / mice immunized): (4/5)

YKQGGFLGLYSFKPMPLaR
antibody response (in words) (MUC1 epitope peptide; listed as MUC1 epitope/C5a agonist peptide conjugate): appreciable antibody response
antibody response (in words) (MUC1 epitope peptide; listed as peptide 3): substantial responses
isotypes of the anti-peptide antibodies produced (MUC1 peptide; FIG. 3): IgM, IgG2a, and IgG2b
specificity of antibody response for the MUC1 epitope (MUC1 peptide; FIG. 4): high percentage of antibodies that are specific for the MUC1 epitope
Ab titer IgA (MUC1 peptide): 0
Ab titer IgG1 (MUC1 peptide): 0
Ab titer IgG2a (MUC1 peptide): 1260
Ab titer IgG2b (MUC1 peptide): 1780
Ab titer IgG3 (MUC1 peptide): 0
Ab titer IgM (MUC1 peptide): 6310
number of responders IgG2a (MUC1 peptide; responders / mice immunized): (5/5)
number of responders IgG2b (MUC1 peptide; responders / mice immunized): (5/5)
number of responders IgM (MUC1 peptide; responders / mice immunized): (5/5)

YSFKPMPLaRKQGGFLGL (YSFKPMPL[dA]RKQGGFLGL)
antibody response (in words) (MUC1 epitope peptide): immune responses were not produced

Source: patent publication US20150218516A1, “COMPOSITIONS AND METHODS FOR ENHANCING IMMUNE RESPONSES MEDIATED BY ANTIGEN-PRESENTING CELLS” (The Board of Regents of the University of Nebraska, priority 2007, published 2015)
